Data from patent US9708336B2, “Metallo-beta-lactamase inhibitors” (priority 2014, dated 2017).
Read-outs that look alike come from different tables or passages of the source.

Columns and labels:
[1] = biological target: NDM-1 (Klebsiella pneumoniae, UniProt C7C422); assay: biochemical; assay type: biochemical; settings: read-out: NDM-1 IC50
[2] = tested on: Serratia marcescens expressing IMP-1 (CL5741); assay: Antibiotic potentiation activity: synergistic concentration (MITC95) with imipenem, OD600 growth; assay type: cell-based; settings: for Serratia marcescens MITC95: Serratia marcescens expressing IMP-1 (CL5741), 95% growth inhibition; for Serratia marcescens expressing IMP-1 (CL5741) MITC95: concentration giving 95% inhibition of bacterial growth
Method in brief: (§1)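 Test compound was combined with 4 μg/ml imipenem (or optionally 1 μg/ml), or with no antibiotic, against saline-suspended colonies diluted 1:100 in 1.1×CAMHB. Strains were E. coli NDM-1, S. marcescens IMP-1 and K. pneumoniae VIM-1. Plates were incubated 22–24 h at 35 °C before absorbance (OD600) readout.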

[3] = tested on: Escherichia coli expressing NDM-1 (CLB30016); assay: as above; assay type: cell-based; settings: Escherichia coli expressing NDM-1 (CLB30016), 95% growth inhibition
Method in brief: as §1

[4] = tested on: Klebsiella pneumoniae expressing VIM-1 (IHMA599644); assay: as above; assay type: cell-based; settings: for Klebsiella pneumoniae MITC95: Klebsiella pneumoniae expressing VIM-1 (IHMA599644), 95% growth inhibition; for Klebsiella pneumoniae expressing VIM-1 (IHMA 599644) MITC95: concentration giving 95% inhibition of bacterial growth
Method in brief: as §1

[5] = tested on: Escherichia coli expressing NDM-1 (CLB30005); assay: as above; assay type: cell-based; settings: for Escherichia coli MITC95: Escherichia coli expressing NDM-1 (CLB30005), 95% growth inhibition; for Escherichia coli expressing NDM-1 (CLB 30005) MITC95: concentration giving 95% inhibition of bacterial growth
Method in brief: as §1

[6] = biological target: IMP-1 (Serratia marcescens, UniProt P52699); assay: biochemical; assay type: biochemical; settings: read-out: IMP-1 IC50
Chain of IMP-1 (P52699 whole entry, looked up): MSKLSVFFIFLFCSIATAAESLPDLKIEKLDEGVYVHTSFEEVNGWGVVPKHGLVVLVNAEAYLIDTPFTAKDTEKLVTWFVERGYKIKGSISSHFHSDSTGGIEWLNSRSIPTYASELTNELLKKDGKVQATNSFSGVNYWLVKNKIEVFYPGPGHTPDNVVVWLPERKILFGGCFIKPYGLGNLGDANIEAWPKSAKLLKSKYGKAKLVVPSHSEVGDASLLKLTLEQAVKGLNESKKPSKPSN

[7] = biological target: VIM-1 (Pseudomonas aeruginosa (strain ATCC 15692 / DSM 22644 / CIP 104116 / JCM 14847 / LMG 12228 / 1C / PRS 101 / PAO1), UniProt A0A0F7KYQ8); assay: Enzyme activity: determination of IC50, fluorescence assay with CCF2-FA substrate (VIM-1); assay type: biochemical
[8] = NDM-1 enzyme, CCF2-FA fluorescence assay
[9] = IMP-1 enzyme, CCF2-FA fluorescence assay
[10] = fluorescence assay with CCF2-FA substrate
[11] = fluorescence assay with CCF2-FA substrate, read-out: VIM-1 IC50
[12] = VIM-1 IC50, fluorescence assay with CCF2-FA substrate

Chain of NDM-1 (C7C422 whole entry, looked up, species assumed): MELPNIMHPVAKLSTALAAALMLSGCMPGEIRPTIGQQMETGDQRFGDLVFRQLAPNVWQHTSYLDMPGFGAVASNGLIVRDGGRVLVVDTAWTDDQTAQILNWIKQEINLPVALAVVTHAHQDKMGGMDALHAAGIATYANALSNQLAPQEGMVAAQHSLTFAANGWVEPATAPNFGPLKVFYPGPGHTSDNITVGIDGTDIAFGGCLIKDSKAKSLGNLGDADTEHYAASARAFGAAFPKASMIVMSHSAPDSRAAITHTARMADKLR

Compound | IC50 [1, 8] | Serratia marcescens MITC95 [2] | Escherichia coli MITC95 [3] | Klebsiella pneumoniae MITC95 [4] | Escherichia coli MITC95 [5] | IC50 [6, 9] | IC50 [1, 10] | Serratia marcescens expressing IMP-1 (CL5741) MITC95 [2] | Klebsiella pneumoniae expressing VIM-1 (IHMA 599644) MITC95 [4] | Escherichia coli expressing NDM-1 (CLB 30005) MITC95 [5] | IC50 [7, 11] | IC50 [6, 10] | IC50 ([7]; VIM-1 IC50, VIM-1 enzyme, CCF2-FA fluorescence assay) | IC50 [7, 12] | IC50 ([7]; VIM-1 enzyme, CCF2-FA fluorescence assay, read-out: VIM-1 IC50)
NS(=O)(=O)c1cccc(-c2cnc3[nH]ncc3c2)c1-c1nn[nH]n1 [Example 309, 3-(1H-pyrazolo[3,4-b]pyridin-5-yl)-2-(2H-tetrazol-5-yl)benzenesulfonamide] | 1.35 nM | 8.333 µM | 0.7813 µM | 5.729 µM | 0.3906 µM | 326 nM |  |  |  |  |  |  |  |  | 
NS(=O)(=O)c1cccc(C2=CCCOC2)c1-c1nn[nH]n1 [Example 63, 3-(5,6-dihydro-2H-pyran-3-yl)-2-(2H-tetrazol-5-yl)benzenesulfonamide] |  |  |  |  |  |  | 48.9 nM | 50 µM | 100 µM | 0.7813 µM | 1320 nM | 1560 nM |  |  | 
CN(C)Cc1ccc(-c2cccc(S(N)(=O)=O)c2-c2nnn[nH]2)cc1 [Example 327, 4′-((Dimethylamino)methyl)-2-(1H-tetrazol-5-yl)-[1,1′-biphenyl]-3-sulfonamide] | 37.7 nM | 12.5 µM |  | 100 µM | 0.7813 µM | 534 nM |  |  |  |  |  |  | 216 nM |  | 
NS(=O)(=O)c1cccc(-c2ccc(F)nc2)c1-c1nn[nH]n1 [Example 48, 3-(6-fluoropyridin-3-yl)-2-(2H-tetrazol-5-yl)benzenesulfonamide] |  |  |  |  |  |  | 19.1 nM | 33.33 µM | 66.67 µM | 0.3906 µM | 182 nM | 644 nM |  |  | 
CC1(c2ccc(-c3cccc(S(N)(=O)=O)c3-c3nn[nH]n3)cc2)SC(=O)NC1=O (stereo not drawn) [Example 75, 4′-(5-methyl-2,4-dioxo-1,3-thiazolidin-5-yl)-2-(2H-tetrazol-5-yl)biphenyl-3-sulfonamide] |  |  |  |  |  |  | 4.57 nM | 3.906 µM | >200 µM | 6.25 µM | 98.1 nM | 9.96 nM |  |  | 
NS(=O)(=O)c1nccc(-c2ccc3c(c2)CC(=O)N3)c1-c1nn[nH]n1 [Example 201, 4-(2-oxoindolin-5-yl)-3-(2H-tetrazol-5-yl)pyridine-2-sulfonamide] |  |  |  |  |  |  | 66.2 nM | 50 µM | 18.75 µM | 0.7813 µM |  | 1450 nM |  | 67.1 nM | 
NS(=O)(=O)c1cccc(-c2cncs2)c1-c1nn[nH]n1 [Example 44, 2-(2H-tetrazol-5-yl)-3-(1,3-thiazol-5-yl)benzenesulfonamide] |  |  |  |  |  |  | 34.6 nM | 12.5 µM | 37.5 µM | 0.3906 µM | 294 nM | 293 nM |  |  | 
Cc1ccc(-c2cc(-c3cnn(C)c3)cc(S(N)(=O)=O)c2-c2nn[nH]n2)cc1 [Example 291, 4′-methyl-5-(1-methyl-1H-pyrazol-4-yl)-2-(2H-tetrazol-5-yl)-[1,1′-biphenyl]-3-sulfonamide] | 1.47 nM | 4.688 µM |  | >200 µM | 3.906 µM | 98.6 nM |  |  |  |  |  |  |  |  | 222 nM
NS(=O)(=O)c1nccc(-c2ccc(N3CCOCC3)nc2)c1-c1nn[nH]n1 [Example 208, 6-morpholino-3′-(2H-tetrazol-5-yl)-[3,4′-bipyridine]-2′-sulfonamide] |  |  |  |  |  |  | 94.7 nM | 37.5 µM | >200 µM | 3.646 µM |  | 589 nM |  | 568 nM | 
CS(=O)(=O)Nc1cccc(-c2ccnc(S(N)(=O)=O)c2-c2nn[nH]n2)c1 [Example 202, 4-(3-(methylsulfonamido)phenyl)-3-(2H-tetrazol-5-yl)pyridine-2-sulfonamide] |  |  |  |  |  |  | 11.5 nM | 2.344 µM | 25 µM | 0.3906 µM | 118 nM | 23.8 nM |  |  | 
